Measured values taken from PubChem BioAssay (NCI).
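Values below derive from 48-hour exposures of cells grown in 96-well plates, with endpoints linearly interpolated between the two concentrations bracketing the appropriate inhibition level. GI50 is the concentration that inhibits growth by half. TGI marks complete inhibition of growth.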

Key:
Experiment in all cases: NCI tumour cell line growth inhibition, 48 h; in the data active = GI50 below about 0.43 µM; inactive = the rest
[1] = tested on: CCRF-CEM leukemia
[2] = tested on: SNB-19 CNS
[3] = tested on: A549 NSCLC
[4] = tested on: OVCAR-4 ovarian
[5] = tested on: SK-MEL-2 melanoma
[6] = tested on: MOLT-4 leukemia
[7] = tested on: SF-295 CNS
[8] = tested on: K-562 leukemia
[9] = tested on: EKVX NSCLC
[10] = tested on: MALME-3M melanoma

C[C@]12CC[C@@H]3c4ccc(OCCN5CCCC5)cc4CC[C@H]3[C@@H]1CCC2=O
> 100 µM: TGI [1] | TGI [2] | TGI [3] | TGI [4] | TGI [8]
70.2 µM: TGI [6]
43.2 µM: TGI [7]
67.6 µM: TGI [9]
35.1 µM: TGI [5]

O=C(O)c1nccnc1C(=O)O
> 100 µM: TGI [1] | TGI [2] | TGI [10] | TGI [3] | TGI [4] | TGI [5] | TGI [6] | TGI [7] | TGI [8] | TGI [9]

Cc1ccc(C2CC(c3cccc(Nc4ccncc4)c3)=NN2c2ccccc2)cc1 (centres undefined)
4.64 µM: TGI [6]
inactive: GI50 [1] 3.95 µM | GI50 [4] 1.69 µM | GI50 [6] 1.95 µM | GI50 [7] 1.76 µM | GI50 [8] 2.11 µM | GI50 [9] 1.69 µM
77.9 µM: TGI [1]
3.12 µM: TGI [4]
3.17 µM: TGI [7]
6.62 µM: TGI [8]
3.25 µM: TGI [9]

C[N+](C)([O-])Cc1cc(-c2ccccc2)ccc1O
> 100 µM: TGI [2] | TGI [10] | TGI [3] | TGI [4] | TGI [5] | TGI [6] | TGI [7] | TGI [8] | TGI [9]

O=c1nc2sc3ccc4ccccc4c3n2[nH]c1=O
> 100 µM: TGI [1] | TGI [2] | TGI [3] | TGI [6] | TGI [7] | TGI [8] | TGI [9]
81.2 µM: TGI [4]

CCCCN=C1OCc2[nH][nH]c(=O)c21
> 100 µM: TGI [1] | TGI [2] | TGI [3] | TGI [4] | TGI [5] | TGI [6] | TGI [7] | TGI [8] | TGI [9]

CCCOC1OC(CS(=O)(=O)O)C(O)C(O)C1O (centres undefined)
> 100 µM: TGI [1] | TGI [2] | TGI [10] | TGI [4] | TGI [5] | TGI [6] | TGI [7] | TGI [8]

COc1cc2c(c(OC(C)=O)c1OC(C)=O)-c1ccc(SC)c(=O)cc1C(NC(C)=O)CC2 (centres undefined)
36.3 µM: TGI [8]
35.7 µM: TGI [1]
> 100 µM: TGI [2] | TGI [10] | TGI [3] | TGI [4] | TGI [6] | TGI [9]
10.1 µM: TGI [7]
7.07 µM: TGI [5]

[O-][n+]1c(-c2ccccc2)c2nc3ccccc3nc2c2ccccc21
> 100 µM: TGI [1] | TGI [2] | TGI [10] | TGI [3] | TGI [4] | TGI [5] | TGI [6] | TGI [7] | TGI [8] | TGI [9]

N#CCCN(CCC#N)c1ccc(/C=C2\N=C(c3cc([N+](=O)[O-])ccc3Cl)N(NC(=O)CC(=O)Nc3ccccc3Cl)C2=O)cc1
> 100 µM: TGI [1] | TGI [2] | TGI [10] | TGI [3] | TGI [4] | TGI [5] | TGI [6] | TGI [7] | TGI [8] | TGI [9]

CCN(CC)CCNc1ccc2nnn3c4ccccc4c(=O)c1c23
16.1 µM: TGI [10]
18.7 µM: TGI [1]
40.3 µM: TGI [2]
14 µM: TGI [5]
15.3 µM: TGI [7]
13.7 µM: TGI [4]
19.4 µM: TGI [9]
14.8 µM: TGI [8]
13.2 µM: TGI [3]
6.7 µM: TGI [6]

CCOC(=O)NC(Nc1ccc(Cl)cn1)(C(F)(F)F)C(F)(F)F
> 100 µM: TGI [1] | TGI [2] | TGI [10] | TGI [5] | TGI [6] | TGI [8] | TGI [9]

CC(C)CN(CC#N)CC(C)C
> 100 µM: TGI [2] | TGI [10] | TGI [3] | TGI [4] | TGI [6] | TGI [7] | TGI [8] | TGI [9]

O=C(O)Cn1c2c(c3c(O)cccc31)C(=O)c1ccccc1-2
inactive: GI50 [1] > 100 µM | GI50 [2] > 100 µM | GI50 [10] > 100 µM | GI50 [3] > 100 µM | GI50 [4] > 100 µM | GI50 [5] > 100 µM | GI50 [6] > 100 µM | GI50 [7] > 100 µM | GI50 [8] > 100 µM | GI50 [9] 3.2 µM
> 100 µM: TGI [1] | TGI [2] | TGI [10] | TGI [3] | TGI [4] | TGI [5] | TGI [6] | TGI [7] | TGI [8] | TGI [9]

NC(N)=NC(N)=Nc1ccccc1 (tested in a mixture with another compound)
> 100 µM: TGI [1] | TGI [2] | TGI [10] | TGI [3] | TGI [4] | TGI [5] | TGI [7] | TGI [8] | TGI [9]

C=CCc1cccc(/C=N\N=C(/N)NO)c1O
> 27 µM: TGI [1]
> 47.9 µM: TGI [8]
38.3 µM: TGI [4]
7.09 µM: TGI [7]
17.7 µM: TGI [9]
> 94.4 µM: TGI [2]
70.9 µM: TGI [10]
> 26.8 µM: TGI [6]
> 54.4 µM: TGI [5]
29.1 µM: TGI [3]
